Read-outs that look alike come from different tables or passages of the source.

One assay concerns MIA PaCa-2 cells. Kind of assay: Detection of cell proliferation inhibition, MIA PaCa-2 (Cell-titer Glo, 96 h). The class given is cell-based. As to the method: MIA PaCa-2 cells were plated in a 96-well ultra-low adsorption plate at 600 cells and 160 µL/well. After overnight incubation, compound solutions with gradient concentrations were prepared, and 40 µL of DMSO solutions of the compounds to be tested were added to each well of cells respectively. Compound final concentrations were 10000, 2000, 400, 80, 16, 3.2, 0.64, 0.12, 0.025, 0 nM (all final concentrations of DMSO were 0.25%). Incubate at 37° C., 5% CO2 for 96 h. Add 50 µL of Cell-titer Glo working solution to each well, shake and mix well, incubate at room temperature for 10 min, read the Luminescence luminescence value with a multi-function microplate reader, and convert the luminescence value reading into inhibition percentage: Percent Inhibition = (Max-Reading)/(Max-Min)* 100. • “Max” is the DMSO control; • “Min” is the cell-free control.
Curve fitting was performed with Graphpad Prism software and IC50 values were obtained. See Table 1for IC50 data for the inhibition of MIA PaCa-2 cells by the compounds of the examples.

A further assay concerns H358 cells. Kind of assay: Detection of cell proliferation inhibition, H358 (Cell-titer Glo, 96 h). The class given is cell-based. Here is the method: H358 cells were plated in 96-well ultra-low adsorption plates at 2000 cells and 190 µL/well. After overnight incubation, compound solutions of gradient concentrations were prepared, and 10 µL of the DMSO solution of each concentration of the compound to be tested was added to the cells in each well. Compound final concentrations were 10000, 3333.3, 1111.1, 370.4, 123.5, 41.2, 13.7, 4.6, 1.5, 0 nM (all final concentrations of DMSO were 0.25%). Incubate at 37° C., 5% CO2 for 96 h. Add 50 µL of Cell-titer Glo working solution to each well, incubate at room temperature for 10 min after shaking and mixing, read the Luminescence luminescence value with a multi-function microplate reader, and convert the luminescence value reading into the inhibition percentage:
Percent Inhibition = (Max-Reading)/(Max-Min)* 100. • “Max” is the DMSO control, • “Min” is the cell-free control.
Curve fitting was performed with Graphpad Prism software and IC50 values were obtained. See Table 1 for IC50 data on H358 cell inhibition by example compounds.

The mark [1] stands for this setting: Homo sapiens, read-out: IC50 (nM) MIA PaCa-2.
[2] abbreviates: Homo sapiens, NCI-H358, read-out: IC50 (nM) H358.
Where [3] appears, read: Homo sapiens, read-out: IC50 MIA PaCa-2.

Consider `C=CC(=O)N1CCN(c2nc(=O)n(-c3c(C)ccnc3C(C)C)c3c(F)c4c(cc23)OCc2ccc3ccccc3c2-4)[C@@H](C)C1` [Example 22, (S)-10-(4-Acryloyl-2-Methylpiperazin-1-yl)-14-Fluoro-13-(2-Isopropyl-4-Methylpyridine-3-yl)-7H-Benzo[5,6] Isochromene[3,4-g]Quinazolin-12(13H)-One], for which the IC50 – broadly, the concentration that gives 50% inhibition – turned out to be 2500 nM in the assay with MIA PaCa-2 cells (setting [1]) and 3740 nM in the assay on H358 cells (setting [2]).
Consider `C=CC(=O)N1CCN(c2nc(=O)n(-c3c(C)ccnc3C(C)C)c3c4c(c(C(F)(F)F)cc23)-c2c(F)cccc2CO4)[C@@H](C)C1` [Example 16, (S)-1-(4-Acryloyl-2-Methylpiperazin-1-yl)-10-Fluoro-4-(2-Isopropyl-4-Methylpyridine-3-yl)-11-(Trifluoromethyl)-4H-Isochromene[4,3-h] Quinazolin-3(6H)-One], for which the IC50 in the assay on MIA PaCa-2 cells (read-out: IC50 (nM) MIA PaCa-2) was under 50 nM; with H358 cells (read-out: IC50 (nM) H358) it was 80.6 nM.
Consider `C=CC(=O)N1CCN(c2nc(=O)n(-c3c(C)ccnc3C(C)C)c3c4c(c(F)cc23)-c2c(O)cccc2CO4)[C@@H](C)C1` [Example 9, (S)(Acryloyl-2-methylpiperazinyl)-11-fluoro-10-hydroxy-4-(2-isopropyl-4-methylpyridin-3-yl) -4 H-isochromene[4,3-h] quinazolin-3(6 H)-one], for which the half-inhibitory concentration (IC50) was over 10000 nM in the assay on MIA PaCa-2 cells (setting [3]) and over 10000 nM in the assay with H358 cells (Homo sapiens, NCI-H358, read-out: IC50 H358).
With `[2H]C1([2H])Oc2c(c(Cl)cc3c(N4CCN(C(=O)C=C)C[C@@H]4C)nc(=O)n(-c4c(C)ccnc4C(C)C)c23)-c2c1ccc(F)c2F` [Example 35], the concentration for half-maximal inhibition (IC50) in the assay with MIA PaCa-2 cells (setting [1]) and with H358 cells (setting [2]) was under 50 nM throughout.
Take `C=CC(=O)N1CCN(c2nc(=O)n(-c3c(C)ccnc3C(C)C)c3c(F)c4c(cc23)OCc2cccc(OC)c2-4)[C@@H](C)C1` [Example 12, (S)-8-(Acryloyl-2-Methylpiperazin-1-yl)-12-Fluoro-1-Methoxy-11-(2-Isopropyl-4-Methylpyridin-3-yl)-5H-Isochromene[3,4-g] Quinazolin-10(11H)-One]: the IC50 was over 2000 nM in the assay on MIA PaCa-2 cells (setting [3]) and 3180 nM with H358 cells (setting [2]).
Turning to `C=CC(=O)N1CCN(c2nc(=O)n(-c3c(C)ccnc3C(C)C)c3c(F)c4c(cc23)OCc2cccc(O)c2-4)[C@@H](C)C1` [Example 10, (S)-8-(Acryloyl-2-Methylpiperazin-1-yl)-12-Fluoro-1-Hydroxy-1l-(2-Isopropyl-4-Methylpyridin-3-yl)-5H-Isochromene[3,4-g]Quinazolin-10(11H)-One], the figures for the concentration for half-maximal inhibition (IC50) with MIA PaCa-2 cells (setting [1]) and in the assay on H358 cells (setting [2]) were 3110 nM and 3870 nM, respectively.
For `C=CC(=O)N1CCN(c2nc(=O)n(-c3c(C)ccnc3C(C)C)c3c(F)c4c(cc23)OCCc2ccccc2-4)[C@@H](C)C1` [Example 8], the half-inhibitory concentration (IC50) was determined as 85 nM in the assay with MIA PaCa-2 cells (setting [1]) and 155 nM with H358 cells (setting [2]).
On to `C=CC(=O)N1CCN(c2nc(=O)n(-c3c(C)ccnc3C(C)C)c3c4c(c(Cl)cc23)-c2c(F)cccc2CO4)C2CC21` (centres unmarked) [Example 33, 1-(5-Acryloyl-2,5-Diazabicyclo [4.1.0] Heptan-2-yl)-11-Chloro-10-Fluoro-4-(2-Isopropyl-4-Methylpyridin-3-yl)-4H-Isochromeno[4,3-h]Quinazolin-3(6H)-One], for which the IC50 with MIA PaCa-2 cells (setting [1]) and in the assay on H358 cells (setting [2]) was under 50 nM each time.
In the case of “10-((S)-4-(Acryloyl-2-Methylpiperazin-1-yl)-8-Fluoro-13-(2-Isopropyl-4-Methyl) Pyridin-3-yl)-2,3-Dihydrobenzo [4,5] Oxodipine [3,2-h] Quinolin-12(13H)One [Example 7]”, the half-inhibitory concentration (IC50) with MIA PaCa-2 cells (read-out: IC50 (nM) MIA PaCa-2) was determined as 70 nM; in the assay with H358 cells (read-out: IC50 (nM) H358) it was 137 nM.
In the case of `C=CC(=O)N1CCN(c2nc(=O)n(-c3c(C)ccnc3C(C)C)c3c4c(c(Cl)cc23)-c2cccnc2CO4)[C@@H](C)C1` [Example 20, (S)-7-(4-Acryloyl-2-Methylpiperazin-1-yl)-5-Chloro-10-(2-Isopropyl-4-Methylpyridine-3-yl)-10H Pyridin[3’,2’:4,5] Pyrano[3,2-h]Quinazolin-9(12H)-One], the half-inhibitory concentration (IC50) with MIA PaCa-2 cells (setting [1]) was determined as 64.2 nM; with H358 cells (setting [2]), 62.6 nM.
Regarding `C=CC(=O)N1CCN(c2nc(=O)n(-c3c(C)ccnc3C(C)C)c3c4c(c(F)cc23)-c2c(F)cccc2CO4)CC1CC#N` (centres unmarked) [Example 25, 2-(1-Acryloyl-4-(10,11-Difluoro-4-(2-Isopropyl-4-Methylpyridin-3-yl)-3-Oxo-3,6-Dihydro-4H-Isochromene[4,3-h] Quinazolin-1-yl) Piperazin-2-yl)Acetonitrile], the IC50 in the assay on MIA PaCa-2 cells (setting [1]) was 122 nM; in the assay on H358 cells (setting [2]) it was 339 nM.
For `C=CC(=O)N1CCN(c2nc(=O)n(-c3c(C)ccnc3C(C)C)c3c(F)c4c(cc23)OCc2ccc(F)c(F)c2-4)[C@@H](C)C1` [Example 17, (S)-8-(4-Acryloyl-2-Methylpiperazin-1-yl)-1,2,12-Trifluoro-11-(2-Isopropyl-4 -Methylpyridin-3-yl)-5H Isochromene[3,4-g] Quinazolin-10(11H)-One], the figures for the IC50 in the assay on MIA PaCa-2 cells (setting [1]) and in the assay on H358 cells (setting [2]) were 317 nM and 274 nM, respectively.
Consider `C=CC(=O)N1CCN(c2nc(=O)n(-c3c(C)ccnc3C(C)C)c3c4c(c(Cl)cc23)-c2c(ccc(F)c2F)CO4)[C@@H](C)C1` [Example 18, (S)-1-(4-Acryloyl-2-Methylpiperazin-1-yl)-11-Chloro-9,10-Difluoro-4-(2-Isopropyl-4-Methylpyridin-3-yl)-4H-Isochromene[4,3-h] Quinazolin-3(6H)-One], for which the concentration for half-maximal inhibition (IC50) with MIA PaCa-2 cells (setting [1]) and in the assay on H358 cells (setting [2]) was under 50 nM throughout.
For `C=CC(=O)N1CCN(c2nc(=O)n(-c3c(C)ccnc3C(C)C)c3c4c(c(F)cc23)-c2c(Cl)cccc2CO4)[C@@H](C)C1` [Example 5, (S)-1-(Acryloyl-2-Methylpiperazin-1-yl)-10-Chloro-11-Fluoro-4-(2-Isopropyl-4-Methylpyridin-3-yl)-4H-Isochromene[4,3-h] Quinazolin-3(6H)-One], the results for the half-maximal inhibitory concentration (IC50) in the assay with MIA PaCa-2 cells (read-out: IC50 (nM) MIA PaCa-2) and in the assay with H358 cells (read-out: IC50 (nM) H358) were under 50 nM and 115 nM, respectively.
For `C=CC(=O)N1CCN(c2nc(=O)n(-c3c(CC)cncc3CC)c3c4c(c(Cl)cc23)-c2c(F)cccc2CCO4)[C@@H](C)C1` [Example 31, 10-((S)-4-Actyloyl-2-Methylpiperazin-1-yl)-8-Chloro-13-(3,5-Diethylpyridin-4-yl)-7-Fluoro-2,3-Dihydrobenzo[4,5]Oxa[3,2-h]Quinazolin-12(13H)-One], the IC50 in the assay with MIA PaCa-2 cells (setting [1]) and in the assay with H358 cells (setting [2]) was under 50 nM throughout.
In the case of `C=CC(=O)N1CCN(c2nc(=O)n(-c3c(C)ccnc3C(C)C)c3c4c(c(Cl)cc23)-c2c(F)ccc(F)c2CO4)[C@@H](C)C1` [Example 29], the IC50 with MIA PaCa-2 cells (setting [1]) and in the assay on H358 cells (setting [2]) was under 50 nM throughout.
Consider `C=CC(=O)N1CCN(c2nc(=O)n(-c3c(C)ccnc3C(C)C)c3c4c(c(C=C)cc23)-c2c(F)cccc2CO4)[C@@H](C)C1` [Example 14, (S)-1-(4-Acryloyl-2-Methylpiperazin-1-yl)-10-Fluoro-4-(2-Isopropyl-4-Methylpyridine-3-yl)-11-Vinyl-4H-Isochromene[4,3-h] Quinazolin-3(6H)-One], for which the concentration for half-maximal inhibition (IC50) in the assay on MIA PaCa-2 cells (read-out: IC50 (nM) MIA PaCa-2) and in the assay on H358 cells (read-out: IC50 (nM) H358) was under 50 nM in each case.
For `C=CC(=O)N1CCN(c2nc(=O)n(-c3c(C4CC4)ncnc3C3CC3)c3c4c(c(Cl)cc23)-c2c(F)cccc2CCO4)[C@@H](C)C1` [Example 32, 10-((S)-4-Acryloyl-2-Methylpiperazin-1-yl)-8-Chloro-13-(4,6-Dicyclopropylpyrimidine-5-Base)-7 -Fluoro-2,3-Dihydrobenzo[4,5] Oxa[3,2-h]Quinazolin-12(13H)-One], the IC50 with MIA PaCa-2 cells (setting [1]) and in the assay on H358 cells (setting [2]) was under 50 nM each time.
Take `C=CC(=O)N1CCN(c2nc(=O)n(-c3c(C)ccnc3C(C)C)c3nc4c(cc23)OCc2ccccc2-4)[C@@H](C)C1` [Example 36, (S)-8-(4-Acryloyl-2-Methylpiperazin-1-yl)-11-(2-Isopropyl-4-Methylpyridin-3-yl) -5H-Isochromene[3’,4′:5,6]Pyrido[2,3-d]Pyrimidin-10(11H)-One]: the results for the 50% inhibitory concentration (IC50) in the assay on MIA PaCa-2 cells (setting [1]) and in the assay on H358 cells (setting [2]) were 442 nM and 889 nM, respectively.
Take `C=CC(=O)N1CCN(c2nc(=O)n(-c3c(C)ccnc3C(C)C)c3c4c(c(F)cc23)-c2ccccc2CO4)[C@@H](C)C1` [Example 1]: the IC50 in the assay with MIA PaCa-2 cells (read-out: IC50 (nM) MIA PaCa-2) was determined as 90.2 nM; with H358 cells (read-out: IC50 (nM) H358) it was 491 nM.
Consider `C=CC(=O)N1CCN(c2nc(=O)n(-c3c(C)ccnc3C(C)C)c3c4c(c(F)cc23)-c2c(F)cccc2CO4)[C@@H](C)C1` [Example 3], for which the IC50 is under 50 nM in the assay on MIA PaCa-2 cells (read-out: IC50 (nM) MIA PaCa-2) and 78 nM in the assay with H358 cells (read-out: IC50 (nM) H358).
On to `C=CC(=O)N1CCN(c2nc(=O)n(-c3c(C)ccnc3C(C)C)c3c4c(c(Cl)cc23)-c2c(F)cccc2CO4)[C@@H](C)C1` [Example 13, (S)-1-(4-Acryloyl-2-Methylpiperazin-1-yl)-11-Chloro-10-Fluoro-4-(2-Isopropyl-4-Methylpyridin-3-yl)-4H-Isochromene[4,3-h] Quinazolin-3(6H)-One], for which the 50% inhibitory concentration (IC50) in the assay on MIA PaCa-2 cells (read-out: IC50 (nM) MIA PaCa-2) and with H358 cells (read-out: IC50 (nM) H358) was under 50 nM throughout.

These data come from US20230203055A1, “FUSED RING COMPOUND AND APPLICATION THEREOF IN MEDICINE” (Betta Pharmaceuticals Co., LTD, priority 2020, published 2023).
